One data set concerns SRS-A. The experiment in a line: Anti-SRS-A action (SRS-A induced shrinkage of guinea pig ileus). More on the design: species or system guinea pig (Hartley strain male). The conditions noted are these: treated five minutes before SRS-A (20 units), 5 min; for SRS-A Inhibition Ratio % 10^-6 M: 1 µM; for SRS-A Inhibition Ratio % 10^-7 M: 0.1 µM. The procedure: (§1) The effect of the compounds (I) of the present invention in the treatment of asthma and allergic diseases were evaluated by a passive cutaneous anaphylaxis assay (PCA) in rats and by measuring anti-SRS-A action using ileus of guinea pigs.
Anti-SRS-A action (An anti-action against slow reacting substance of anaphylaxie)
Hartley strain male guinea pigs (300 to 350 grams body weight) are killed and 1.0 to 1.5 cm of ileus is immediately excised from ileocecal parts and is suspended in 10 ml of Tyrode solution (95% O2 -5% CO2 saturation) containing 10^-7 g/ml of atropine and 10^-6 g/ml of pyrilamine. SRS-A (20 units) (the amount of SRS-A showing the same shrinkage as 5 ng of histamine is defined as one unit) prepared by using sensitized guinea pig lung is given to cause shrinkage there. Then antagonistic action of test compounds treated five minutes ago against the shrinkage is measured and recorded via isotonic transducer. [formula] in which A' is a height of shrinkage of SRS-A + test compound and A is that of SRS-A.

Another data set concerns male mice. As to the kind of experiment: Acute toxicity, oral, observed for two weeks. Format: in vivo. The conditions noted are these: oral 4000 mg/kg, dead/total. The procedure: Acute toxicity is observed for two weeks by oral adminsitration of 4000 mg/kg of the test compounds to male mice. One group consists of four mice. Numbers of dead mice are shown in numerators.

Data set [1] deals with passive cutaneous anaphylaxis (PCA). As to the kind of experiment: Passive cutaneous anaphylaxis assay (PCA) in rats. Type of data set: in vivo, rat (Wister strain). To be noted: Rattus norvegicus, po, 1 h, oral 10 mg/kg, one hour before antigen, read-out: PCA Inhibition Ratio %. The procedure:
as §1
(i) Antiserum abundant in homocytotropic antibody is prepared by the same method as Tada and Okumura did (cf. Journal of Immunology, volume 106, page 1002, […]). Thus, one mg (calculated as an amount of protein) of DNP-As (2,4-dinitrophenyl-coupled ascaris extract) prepared by methods of Strejan and Campbell (Journal of Immunology, volume 98, page 893, 1971) and of Eisen (Journal of American Chemical Society, volume 85, page 4593, 1953) and […] pertussis vaccine are administered to each paw of Wister strain rats (180 to 200 grams body weights) by dividing the dose by four. Five days later, 0.5 mg of DNP-As is adminstered into muscle of back. Eight days later from the initial immunization, blood is taken from descending aorta under anesthetizing with ether, the resulting serum is stored at -80° C. and is melted before use.
(ii) Effect of tested compounds is investigated as follows:
Anti-serum obtained by the method (i) is diluted with physiological saline solution double by double successively and 0.05 ml of each diluted solution is administered into back of Wister strain rats (140 to 160 grams body weight) subcutaneously. After 72 hours, a solution of 2 mg (calculated as protein) of DNP-As and 2.5 mg of Evand Blue dissolved in 1 ml of physiological saline solution is administered intravenously at a dose of 5 ml/kg. After thirty minutes from antigen solution administration, the animals are killed and diameters of blue spots appeared at the place where antiserum is administered are measured. The PCA test is conducted by the same method as already described using a diluted solutions of antiserum which always show 10 mm or more of spot diameters and the effect of the test compounds is judged. Thus, antiserum diluted solutions are administered to two places in back. Test compounds are administered orally at the dose of 10 mg/kg one hour before administration of antigen solution. From the skin of reacted parts of killed animals, leaked or emitted dyestuff is extracted [cf. Baeck and Steinetz: J. Pharmacol. Exp. Ther., Vol. 131, page 400 (1961)] and the amount of the dyestuff is measured. The inhibition ratio is calculated by the following expression: [formula] in which R' is an amount of dyestuff in the group treated with the test compounds and A is that in the control group.

The next data set relates to carrageenin edema. The experiment in a line: Carrageenin edema in hind foot of rat (anti-inflammatory action). Type of data set: in vivo, rat (SD strain). More on the design: concentration or dose not given beside the values. The conditions noted are these: rats, oral one hour prior to carrageenin; foot volume three hours after. The procedure:
Anti-inflammatory action was evaluated by measuring the effect of the compounds (I) in inhibiting carrageenin edema as illustrated below.
Carrageenin edema in hind foot of rat.
SD strain rats of about 150 grams body weight were used; each group consisted of five rats. Thus, 0.1 ml of 0.5% carrageenin solution in physiological saline water was hypodermically injected to the right hind foot of rat. The test compound was given orally to rats one hour prior to the above carrageenin treatment. Then the volume of the foot before and three hours after the carrageenin treatment was measured and the difference was compared with that of the control group.

The test system of another data set is mast cells. To be noted: believed; cited from earlier work.
The subject of the next data set is allergic asthma. To be noted: cited from earlier work.

On to `CCOc1ccccc1-c1oc2c(C(=O)OCCO)cccc2c(=O)c1C` [Example 4, Beta-Hydroxyethyl 2'-ethoxy-3-methylflavone 8-carboxylate], for which, in the data set on SRS-A, the “SRS-A Inhibition Ratio % 10^-6 M” value amounted to 67.2% and the “SRS-A Inhibition Ratio % 10^-7 M” value was found to be 42.4%. In the data set with male mice, the “Lethal Ratio” value is reported as 0/4. In addition, the inhibition in vivo at 10 mg/kg in data set [1] was found to be 20.5%. In addition, the “% Inhibition (carrageenin edema)” value with carrageenin edema is 33.9%.
Take `CCOC(=O)c1cccc2c(=O)c(C)c(-c3ccccc3OC)oc12` [Example 11, ethyl 2'-methoxy-3-methylflavone-8-carboxylate]: in the data set on SRS-A, the “SRS-A Inhibition Ratio % 10^-6 M” value is 100% and the “SRS-A Inhibition Ratio % 10^-7 M” value turned out to be 35.1%. Also, the “Lethal Ratio” value with male mice is 0/4. The inhibition in vivo at 10 mg/kg in data set [1] stood at 16.3%.
The corresponding values for `CCNC(=O)c1cccc2c(=O)c(C)c(-c3ccccc3OC)oc12` [Example 13, 2'-methoxy-3-methylflavone-8-carboxylic acid acid N-ethylamide] are 45.2%, 37.4%, 1/4 and 23%.
The corresponding values for `CCOc1ccccc1-c1oc2c(C(=O)N(CC)CC)cccc2c(=O)c1C` [Example 18, 2'-ethoxy-3-methylflavone-8-carboxylic acid N,N-diethylamide] are 57.1%, 32.1%, 0/4 and 27.4%.
On to `Cc1c(-c2ccccc2OC(C)C)oc2c(C(=O)O)cccc2c1=O` [Example 20, 2'-isopropoxy-3-methylflavone-8-carboxylic acid], for which, in the data set on SRS-A, the “SRS-A Inhibition Ratio % 10^-6 M” value is given as 38.5% and the “SRS-A Inhibition Ratio % 10^-7 M” value came out at 20.4%. Further, in data set [1], the inhibition in vivo at 10 mg/kg came out at 20.7%. In the data set with carrageenin edema, the “% Inhibition (carrageenin edema)” value stood at 32.5%.
Taken in the same sequence, the figures for `CCN(CC)C(=O)c1cccc2c(=O)c(C)c(-c3ccccc3C)oc12` [Example 35, 2',3-dimethylflavone-8-carboxylic acid N,N-diethylamide] were 48.8%, 18.0%, 13.3% and 13.0%.
As to `CCN(CC)C(=O)c1cccc2c(=O)c(C)c(-c3ccc(C(C)C)cc3)oc12` [Example 48, 4'-isopropyl-3-methylflavone-8-carboxylic acid N,N-diethylamide], in the data set with SRS-A, the “SRS-A Inhibition Ratio % 10^-6 M” value was determined as 100% and the “SRS-A Inhibition Ratio % 10^-7 M” value is reported as 23.3%. Further, the “Lethal Ratio” value with male mice is on record as 0/4. Moreover, the inhibition in vivo at 10 mg/kg in data set [1] came to 27.2%. Besides, the “% Inhibition (carrageenin edema)” value with carrageenin edema is reported as 23.2%.
Take `Cc1c(-c2ccc(C(C)(C)C)cc2)oc2c(C(=O)O)cccc2c1=O` [Example 55, 4'-tertiary butyl-3-methylflavone-8-carboxylic acid]: in the data set with SRS-A, the “SRS-A Inhibition Ratio % 10^-6 M” value worked out at 100% and the “SRS-A Inhibition Ratio % 10^-7 M” value is 21.1%. For the same compound, in data set [1], the inhibition in vivo at 10 mg/kg was determined as 20.3%. For the same compound, the “% Inhibition (carrageenin edema)” value in the data set on carrageenin edema is on record as 19.1%.
As to `CCCCCc1ccc(-c2oc3c(C(=O)O)cccc3c(=O)c2C)cc1` [Example 58, 3-methyl-4'-n-pentylflavone-8-carboxylic acid], in the data set with SRS-A, the “SRS-A Inhibition Ratio % 10^-6 M” value was 40.0% and the “SRS-A Inhibition Ratio % 10^-7 M” value was determined as 10.3%. Moreover, the “Lethal Ratio” value with male mice is 0/4. Also, the inhibition in vivo at 10 mg/kg in data set [1] was found to be 28.8%. Moreover, the “% Inhibition (carrageenin edema)” value in the data set with carrageenin edema is given as 31.9%.
As for `CCCCCCCCc1ccc(-c2oc3c(C(=O)O)cccc3c(=O)c2C)cc1` [Example 62, 3-methyl-4'-n-octylflavone-8-carboxylicacid], in the data set on SRS-A, the “SRS-A Inhibition Ratio % 10^-6 M” value is 83.3% and the “SRS-A Inhibition Ratio % 10^-7 M” value came to 31.0%. Further, the “Lethal Ratio” value in the data set with male mice is on record as 0/4. The inhibition in vivo at 10 mg/kg in data set [1] worked out at 16.3%.
Take `Cc1c(-c2ccc(Cl)cc2)oc2c(C(=O)OCCO)cccc2c1=O` [Example 74, beta-hydroxyethyl 4'-chloro-3-methylflavone-8-carboxylate]: in the data set on SRS-A, the “SRS-A Inhibition Ratio % 10^-6 M” value is recorded as 52.0% and the “SRS-A Inhibition Ratio % 10^-7 M” value came to 18.7%. Besides, the “Lethal Ratio” value with male mice is given as 0/4. Besides, in data set [1], the inhibition in vivo at 10 mg/kg was 17.3%.
For `O=C(O)c1cc(=O)c2c(OCC(O)COc3cccc4oc(C(=O)O)cc(=O)c34)cccc2o1` [sodium cromoglicate], in the data set with mast cells, the “inhibition of emission of chemical mediators” value is on record as “inhibits emission of chemical mediators from mast cells”. Also, in the data set with allergic asthma (in vivo), the “duration of action” value is given as “its action is of short duration”. Moreover, the “pharmaceutical effect by oral administration” value with allergic asthma (oral) is “does not show any pharmaceutical effect by oral administration”. The “effect in allergic asthma” value with allergic asthma (reported by Cox, et al.) was “effective for allergic asthma”.

The values above are taken from patent US4594345A, “Methylflavone-8-carboxylates” (Nippon Shinyaku Co. Ltd., priority 1982, dated 1986).
